Laboratory results published in patent US7572826B2, “Thiophene-carboxamide derivatives and their use as inhibitors of the enzyme IKK-2” (AstraZeneca AB, priority 2003, dated 2009).

Key:
[1] = system: human peripheral blood mononuclear cells (PBMCs); assay: Inhibition of LPS-induced TNFα production by PBMCs; format: cell-based; conditions: PBMC, inhibition of LPS-stimulated TNFα production
Method: The effect of test compounds on nuclear factor kappa B (NFκB) activation in cells was assessed by measuring inhibition of tumour necrosis factor alpha (TNFα) production by human peripheral blood mononuclear cells (PBMCs) stimulated by bacterial lipopolysaccharide (LPS).
Human blood (250 ml), anticoagulated with heparin, was collected from healthy volunteers. Aliquots of blood (25 ml) were layered on 20 ml Lymphoprep (Nycomed) in 50 ml polypropylene centrifuge tubes. The tubes were centrifuged (Sorval RT600B) at 2,500 rpm for 30 minutes. The cloudy layer containing PBMCs was collected with a fine tipped Pasteur pipette, transferred into 8 clean polypropylene centrifuge tubes (approximately 10 ml per tube) and diluted to 50 ml with phosphate-buffered saline (PBS). These tubes were centrifuged at 2,000 rpm for 8 minutes. PBS (10 ml) was added to each cell pellet and the cells were gently re-suspended. The cells were pooled in 4 centrifuge tubes, PBS was added to each tube to make the volume up to 50 ml and the tubes were centrifuged at 1,400 rpm for 8 minutes. The cell pellets were again re-suspended in 10 ml PBS, pooled in 2 centrige tubes, the volume made up to 50 ml with PBS and the tubes centrifuged at 900 rpm for 10 minutes.
The final cell pellets were gently re-suspended in 10 ml tissue culture medium (RPMI containing 1% heat-inactivated human serum, L-glutamine and penicillin and streptomycin), combined into 1 tube and the volume made up to 30 ml with RPMI medium. The cells were counted and the cell suspension was diluted to 2.6×10^6 cells/ml.
Test compounds were dissolved in DMSO to 10 mM and diluted 1 in 250 (40 μM) with RPMI medium. The compounds were then serially diluted 1 in 3 with 0.4% DMSO in RPMI medium. Aliquots of test compound dilutions (50 μl) were transferred to the wells of a 96-well plate. Control wells contained 0.4% DMSO in RPMI instead of compound.
Aliquots of the cell suspension (100 μl) were added to each well and the plates incubated at 37° C. for 30 minutes. 50 μl of 40 μg/ml LPS (Sigma, LA130) was added to wells to stimulate TNFα production by the cells and the plates were incubated overnight at 37° C. RPMI medium (50 μl) was added to negative control wells instead of LPS. The final incubation volume was 200 μl.
Plates were centrifuged for 4 minutes at 1,200 rpm and supernatants were removed for measurement of TNFα concentration. Viability of the remaining cell pellet was measured using WST-1 reagent (Boehringer Mannheim, 1044807). […] The absorbance at 450 nm was then measured using a 96-well plate spectrophotometer.
TNFα in the supernatants (freshly harvested or stored frozen at −20° C.) were measured using an enzyme-linked immunosorbant assay (ELISA). […]

IKK-2 = target: T1, IKK-2 (Homo sapiens, UniProt O14920); assay: IKK-2 filter kinase assay; format: biochemical; conditions: 1 μM ATP, 1-53 GST-IκB substrate, read-out: Inhibition of IKK-2 IC50
T1 sequence (O14920 1-756): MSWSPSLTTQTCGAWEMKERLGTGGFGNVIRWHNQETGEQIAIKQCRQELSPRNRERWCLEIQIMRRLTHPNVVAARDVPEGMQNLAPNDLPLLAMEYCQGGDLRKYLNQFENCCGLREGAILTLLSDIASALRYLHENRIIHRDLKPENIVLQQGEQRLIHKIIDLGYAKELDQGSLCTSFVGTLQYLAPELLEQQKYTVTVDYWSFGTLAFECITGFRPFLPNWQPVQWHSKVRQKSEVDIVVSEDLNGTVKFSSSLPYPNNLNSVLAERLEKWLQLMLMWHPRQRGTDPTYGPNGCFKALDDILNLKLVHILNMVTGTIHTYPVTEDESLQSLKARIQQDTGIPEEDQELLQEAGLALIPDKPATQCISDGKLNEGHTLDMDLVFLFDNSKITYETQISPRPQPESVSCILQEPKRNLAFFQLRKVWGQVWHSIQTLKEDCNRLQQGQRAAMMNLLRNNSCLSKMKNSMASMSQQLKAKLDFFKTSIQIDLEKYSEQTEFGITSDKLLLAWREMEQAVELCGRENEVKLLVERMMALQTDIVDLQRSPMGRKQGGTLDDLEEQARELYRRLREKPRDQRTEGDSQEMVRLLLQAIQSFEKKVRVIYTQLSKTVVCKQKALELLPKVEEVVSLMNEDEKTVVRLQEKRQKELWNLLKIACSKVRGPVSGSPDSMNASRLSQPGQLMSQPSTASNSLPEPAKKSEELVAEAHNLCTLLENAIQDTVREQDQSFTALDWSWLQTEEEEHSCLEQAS
Method: The test compounds were dissolved to 10 mM in dimethylsulphoxide (DMSO). The compounds were then diluted 1 in 40 in kinase buffer (50 mM Tris, pH 7.4 containing 0.1 mM EGTA, 0.1 mM sodium orthovanadate and 0.1% β-mercaptoethanol). 1 in 3 serial dilutions were made from this solution with 2.5% DMSO in kinase buffer. 20 μl of compound dilution was added to wells of a 96 well plate in duplicate.
10 μl of a mixture of magnesium acetate, unlabelled ATP, and ^33P-labelled ATP was added to each well made such that the final concentration was 10 mM magnesium acetate, 1 μM ATP and 0.1 μCi ^33P ATP. […] The final reaction volume was 50 μl.
The kinase reactions were incubated at 21° C. for 80 minutes and the reaction stopped by precipitating the protein by the addition of an equal volume (50 μl) of 20% trichloroacetic acid (TCA). The precipitate was allowed to form for 10 minutes and then filtered onto a GF/C unifilter 96 well plate. Each filter was washed twice with approximately 1 ml 2% TCA. The filter plate was dried at 30-40° C. for 60 minutes, 20 μl scintillant was added to each well and the plate sealed and radioactivity counted on a Packard Topcount microplate scintillation counter.

Structure (SMILES)	IC50 [1] [µM]	IC50 (IKK-2) [µM]
NC(=O)Nc1sc(-c2ccc(CNCC(F)(F)F)cc2)cc1C(N)=O [Example 1]	0.42	0.0036
CN(C)Cc1ccc(-c2cc(C(N)=O)c(NC(N)=O)s2)cc1 [Example 5, 2-[(Aminocarbonyl)amino]-5-{4-[dimethylaminomethyl]phenyl}thiophene-3-carboxamide]	0.12	0.013
COCCN(C)Cc1ccc(-c2cc(C(N)=O)c(NC(N)=O)s2)cc1 [Example 56]	0.45	0.066
NC(=O)Nc1sc(-c2ccc(CN(CCO)Cc3ccccc3)cc2)cc1C(N)=O [Example 61, 2-[(Aminocarbonyl)amino]-5-[4-{([N-benzyl-N-(2-hydroxyethyl)]amino)methyl}phenyl]thiophene-3-carboxamide]	0.34	0.00056
